The source of these data is publication PMC12371494, “Discovery of YTHDF2 Ligands by Fragment-Based Design” (ACS Bio & Med Chem Au, 2025).

Where “and” joins values, the source holds several entries; their conditions need not be identical. Equal entries are not always repeated. Where two headings read alike, the source gives them in different places.

For experiment [1], the target named is T1, GST-YTHDF2 (Homo sapiens, UniProt Q9Y5A9).
T1 construct: made in house
T1 sequence (Q9Y5A9 1-579): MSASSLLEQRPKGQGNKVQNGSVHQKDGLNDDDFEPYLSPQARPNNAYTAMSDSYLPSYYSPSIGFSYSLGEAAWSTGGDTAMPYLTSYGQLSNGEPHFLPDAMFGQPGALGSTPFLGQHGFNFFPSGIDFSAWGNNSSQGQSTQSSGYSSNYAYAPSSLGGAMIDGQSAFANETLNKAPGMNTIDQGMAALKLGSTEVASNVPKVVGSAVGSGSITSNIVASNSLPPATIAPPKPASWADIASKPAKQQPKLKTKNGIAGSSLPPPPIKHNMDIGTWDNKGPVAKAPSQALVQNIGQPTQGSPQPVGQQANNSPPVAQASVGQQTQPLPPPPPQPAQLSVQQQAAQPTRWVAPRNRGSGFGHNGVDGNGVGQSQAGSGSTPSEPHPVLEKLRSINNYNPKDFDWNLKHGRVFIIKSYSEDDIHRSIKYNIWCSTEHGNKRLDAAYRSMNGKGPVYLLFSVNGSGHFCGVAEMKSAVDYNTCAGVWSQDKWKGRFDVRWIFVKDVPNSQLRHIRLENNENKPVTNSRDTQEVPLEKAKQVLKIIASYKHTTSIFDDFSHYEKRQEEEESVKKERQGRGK
The following applies: HTRF, 1 mM compound; cited from earlier work.

Experiment [2] addresses T1, GST-YTHDF2. The experiment in a line: HTRF-based binding assay, competition with m6A-oligoRNA, DF2. Particulars: for IC50: dose-response, competitor m6A-oligoRNA, read-out: DF2 IC50 (HTRF assay); for LE (ligand efficiency, DF2): LE = -RT ln IC50/HAC from HTRF IC50.
A further experiment deals with T2, YTHDF2 (Homo sapiens, UniProt Q9Y5A9).
T2 sequence (Q9Y5A9 1-579): T1 sequence (Q9Y5A9 1-579)
Nature of the experiment: DNA-fluorescence polarization (FP) competition assay, DF2. Type of experiment: binding. On the procedure: An FP competition assay was used to further validate the binding of the compounds to DF2. The main difference with respect to a previously published FP assay is the use of an oligo-DNA as competitor ligand (see Materials and Methods section). […] These differences might originate from the varying conditions in the two assays, such as the competitor mRNA (5′-biotin-[…](m6A)-CUAAGCU-3′) in HTRF and DNA (5′-FAM-[…](m6A)-CTAAGCT-3′) in FP, the salt concentration (150 mM NaCl and 100 mM KF in HTRF, and 150 mM NaCl in FP), and the pH (7.5 in HTRF and 7.4 in FP). The FP-based assay was also employed to assess the selectivity against DC1 and DC2 (see Selectivity section).
(§1) For fluorescence polarization (FP) experiments, a 5′-fluorescein-labeled m^6A-DNA probe (5′-FAM-[…](m6A)-CTAAGCT-3′) was synthesized by Microsynth AG.
(§2) The final concentration of the fluorescein-labeled DNA was kept constant at 3 nM. For YTHDC2 measurements, the protein concentration was set to 25 nM, while for YTHDF2 measurements, it was set to 10 nM, and for YTHDC1, it was set at 15 nM. The compound concentration was serially diluted to obtain the dose–response curve. The competition experiments were conducted in a final volume of 20 μL in a buffer containing 20 mM Tris–HCl (pH 7.4), 150 mM NaCl, and 0.01% bovine serum albumin (BSA), using a 384-well black flat-bottomed microplate (Corning 3575).
(§3) After incubating the mixture for 1 h, the anisotropy values were measured using a Tecan SPARK plate reader with 485/20 nm excitation and 535/25 nm emission polarization filters, suitable for fluorescein, at 25 °C. To obtain the equilibrium dissociation constant (K d), the IC50 values were first derived by fitting a dose–response curve to the data using nonlinear regression analysis in GraphPad Prism. These IC50 values were then converted to K d by using the Cheng–Prusoff equation: Kd=IC50/1+[L]/Kdprobe
(§4) IC50 is the observed value from FP assay, [L] is the probe concentration used, and K d ^probe is the binding affinity of probe for the target.
Background: Polarisation of emitted light reports the rotation of a fluorescent probe.

The target of a further experiment is T3, YTHDC2 (Homo sapiens, UniProt Q9H6S0).
T3 construct: YTH domain of YTHDC2 (residues 1285–1424, cloned into the pGEX-6P-1 vector); made in house; host or cells: Rosetta (DE3) cells (E. coli)
T3 sequence (Q9H6S0 1285-1424): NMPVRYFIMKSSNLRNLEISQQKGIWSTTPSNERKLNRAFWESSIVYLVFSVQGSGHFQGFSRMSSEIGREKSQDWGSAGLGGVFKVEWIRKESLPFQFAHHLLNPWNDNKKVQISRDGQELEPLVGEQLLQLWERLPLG
Nature of the experiment: DNA-fluorescence polarization (FP) competition assay, DC2. In kind it is binding. Particulars: for Kd: Cheng-Prusoff from FP IC50, probe Kd 7 nM, two biological replicates. How it is done: (§5) The binding affinity for DC1 could not be evaluated by HTRF because of interference of the compounds with the assay, which has a smaller assay window when performed with DC1 compared to the DF proteins. Thus, the FP assay was used to evaluate binding to DC1 and DC2.
The N-terminally GST-tagged YTH domain of YTHDC2 (residues 1285–1424, cloned into the pGEX-6P-1 vector) was overexpressed in Rosetta (DE3) cells grown overnight at 20 °C following induction with 0.4 mM isopropyl-β-D-thiogalactopyranoside (IPTG) at an OD600 of 0.8. The cells were harvested and resuspended in a lysis buffer containing 100 mM Tris–HCl (pH 8.0) and 500 mM NaCl. After cell lysis, the lysate was clarified by centrifugation at 48,000g for 1 h, and the soluble proteins were loaded onto a column packed with Glutathione Sepharose 4B (GE Healthcare), then eluted with 20 mM reduced glutathione in lysis buffer. Finally, a size-exclusion chromatography step (HiLoad 16/600 Superdex 200 pg column, GE Healthcare) was performed to further purify the protein in 20 mM Tris–HCl (pH 7.4) and 150 mM NaCl.
as §1, §2, §3, §4

Another experiment concerns the target YTHDC1 (Homo sapiens, UniProt Q96MU7). Nature of the experiment: DNA-fluorescence polarization (FP) competition assay, DC1. In kind it is binding. On the procedure:
as §5, §1, §2, §3, §4

Setting [3] is: Cheng-Prusoff from FP IC50, probe Kd 5 nM, two biological replicates.

As for `CNc1ncnc2[nH]cnc12` [m^6-Adenine], on GST-YTHDF2 [1], the “Residual signal at 1 mM concentration” value is 75 (Ref. ^13) %.
For orientation: IC50 means the concentration at which inhibition is half-maximal. In general, Kd refers to the constant that tells how readily two partners part at equilibrium. With `Cc1csc2[nH]c(=S)[nH]c(=O)c12` [Compound S88], the IC50 on GST-YTHDF2 [2] was determined as 28 µM. In addition, the results for the equilibrium dissociation constant (Kd) at YTHDF2 (setting [3]) and at YTHDC2 were 8.1 µM and 120 µM, respectively.
For the molecule `CCOC(=O)c1ccc(-c2cc3c(=O)[nH]c(=S)[nH]c3s2)cc1` [Compound 29], the “LE (ligand efficiency, DF2)” value on GST-YTHDF2 [2] is given as 0.29 kcal/(mol HAC). For the same molecule, the IC50 on GST-YTHDF2 [2] came out at 21 µM. Also, the equilibrium dissociation constant (Kd) at YTHDC1 was determined as 5 µM; on YTHDF2, 3.1 µM; at YTHDC2 it was 8.4 µM. In addition, at YTHDC1 (FP Kd values), the “Selectivity DF2 over DC1 (Kd ratio DC1/DF2)” value is listed as 2–4 fold. For the same molecule, the “Selectivity DF2 over DC2 (Kd ratio DC2/DF2)” value on YTHDC2 (FP Kd values) is listed as 2–4 fold.
As for `COc1ccc(-c2cc3c(=O)[nH]c(=S)[nH]c3s2)cc1` [Compound 28], the “LE (ligand efficiency, DF2)” value at GST-YTHDF2 [2] is 0.34 kcal/(mol HAC). At GST-YTHDF2 [2], the 50% inhibitory concentration (IC50) was determined as 22 µM. Also, the Kd was determined as 9.4 µM at YTHDC1, 1.9 µM at YTHDF2 and 9.1 µM on YTHDC2.
For `O=C(O)c1ccc(Cc2cc3c(=O)[nH]c(=S)[nH]c3s2)cc1` [Compound S87], at GST-YTHDF2 [2], the IC50 worked out at 29 µM. Besides, the figures for the Kd on YTHDF2 (setting [3]) and on YTHDC2 were 18 µM and 100 µM, respectively.
With `O=C(O)c1ccc(-c2cc3c(=O)[nH]c(=S)[nH]c3s2)cc1` [Compound 30], the Kd was 7.5 µM at YTHDC1; 1.9 µM on YTHDF2; 5 µM and 4.9 µM on YTHDC2.
